Assay results reported in PubChem BioAssay AID1918939 (Molecular Pharmacology Branch, DTP, NCI, 2023).
“And” between values parts separate entries of the source, which are not always exact repeats. Equal entries are not always repeated.

Test system: 653999-131-R-J2-PDC complex spheroid viability
Assay: Anticancer human tumor 653999-131-R-J2-PDC patient-derived lung adenocarcinoma cell line growth inhibition
Details: for viability, T/C: stronger effect = lower value
From the text: Multicellular complex tumor spheroid response to LSD1 Inhibitor Iadademstat in combination with a variety of drugs and investigational agents in selected tumor cell lines
The current study was undertaken to assess response to LSD1 inhibitors in combination with standard-of-care drugs and investigational agents in solid tumor complex spheroid models as well as in the K-562 leukemia. Complex spheroids include a stromal component modeled by human endothelial cells (HUVEC) and fibroblasts modeled by human mesenchymal stem cells (MSCs). The concentration ranges selected for each drug and investigational agent were based upon clinically achievable concentrations if the clinical Cmax of the agent was known.
Compounds. The drugs and investigational agents used in this study are listed on Table 1. All of the agents used, including staurosporine (NSC755774) and gemcitabine (NSC613327), were obtained from the Developmental Therapeutics Program, NCI. FDA-approved anticancer drugs are available from the NCI at http://dtp.nci.nih.gov/branches/dscb/oncology_drugset_explanation.html. Drugs and investigational agents were >95% pure by proton nuclear magnetic resonance (NMR) and liquid chromatography/mass spectrometry (LC/MS). Stock solutions were prepared at 400x in DMSO, stored at -70 degrees C, and diluted in fresh medium prior to their use. The final concentration of DMSO in cell culture wells never exceeded 0.25% (v/v). The FDA-approved anticancer drug set is available from the Developmental Therapeutics Program at https://dtp.cancer.gov/organization/dscb/obtaining/available_plates.htm. All drugs and investigational agents were tested over a range starting from a high concentration at or near the clinical Cmax and decreasing in half-log increments. If the clinical Cmax for an agent had not been determined, the highest concentration tested was 10 microM.
Cell Lines. The patient-derived cancer cell (PDC) lines: 292921-168-R-J2-PDC, K24384-001-R-PDC, and 521955-158-R2-J5-PDC pancreatic carcinomas, 556581-035-R-J1 ovarian carcinoma, 324938-238-R-J1-PDC, 855422-203-R-J1-PDC and 883617-216-R-J1-PDC urothelial bladder carcinomas, 743489-274-T-PDC renal cell carcinoma, 138582-R-J1 Merkel cell tumor, K60290-347-R-J1 and K57222-313-R-J1-PDC glioblastomas, 653999-131-R-J2-PDC, LG0703-F948-PDC, and 349418-098-R-PDC non-small cell lung carcinomas, 885512-296-R-J2-PDC, 171881-019-R-J1-PDC breast carcinomas and 186277-243-T-J2-PDC and 233499-124-R-J2-PDC colon carcinomas were obtained from the NCI Patient-Derived Models Repository (PDMR, https://pdmr.cancer.gov). The established cell lines NCI/ADR-RES (RRID:CVCL_14520 and OVCAR-5 (RRID:CVCL_1628) ovarian carcinomas, 786-O (RRID:CVCL_1051) and A498 (RRID:CVCL_A498) renal cell carcinoma, NCI-H211 (ATCC, cat. CRL-5824; RRID:CVCL_1529), NCI-H196 (ATCC, cat. CRL-5823, RRID:CVCL_1509), SW 1271 (ATCC, cat. CRL-2177, RRID:CVCL_1716) and NCI-H1876 (ATCC, cat. CRL-5902, RRID:CVCL_1503) small cell lung carcinomas, MDA-MB-231 (RRID:CVCL_0062) and MDA-MB-468 (RRID:CVCL_0419)breast carcinomas (10-12). Pooled donor human umbilical vein endothelial cells (HUVEC, Lonza, cat. CC-2519) and human mesenchymal stem cells (hMSC, Lonza, cat. PT-2501) were purchased from Lonza (Walkersville, MD).
Cell Culture. All cells were maintained in an incubator at 37 degrees C and 5% CO2 with 95% humidity. The PDC lines were cultured according to standard operating procedures established by the NCI PDMR (https://pdmr.cancer.gov). Briefly all PDCs were thawed and cultured in Matrigel-coated flasks prepared with a working solution of 1X Ham's F-12 nutrient mix, without supplementation (Invitrogen, Waltham, MA, cat. 11765054), 100 U/mL penicillin-streptomycin (Invitrogen, cat. 15140122), and 2.5% Matrigel (Corning Inc., Corning, NY, cat. 354248) for the first three passages. […]

[1] = curve of first compound, second compound 0.1 µM
[2] = curve of first compound, second compound 0.316 µM
[3] = curve of first compound, second compound 1 µM
[4] = curve of first compound, second compound 3.16 µM
[5] = curve of first compound, second compound 10 µM
[6] = second compound 0.1 µM, first compound 0.00316 µM
[7] = second compound 0.1 µM, first compound 0.01 µM
[8] = second compound 0.1 µM, first compound 0.0316 µM
[9] = second compound 0.1 µM, first compound 0.1 µM
[10] = second compound 0.316 µM, first compound 0.00316 µM
[11] = second compound 0.316 µM, first compound 0.01 µM
[12] = second compound 0.316 µM, first compound 0.0316 µM
[13] = second compound 0.316 µM, first compound 0.1 µM
[14] = second compound 1 µM, first compound 0.00316 µM
[15] = second compound 1 µM, first compound 0.01 µM
[16] = second compound 1 µM, first compound 0.0316 µM
[17] = second compound 1 µM, first compound 0.1 µM
[18] = second compound 3.16 µM, first compound 0.00316 µM
[19] = second compound 3.16 µM, first compound 0.01 µM
[20] = second compound 3.16 µM, first compound 0.0316 µM
[21] = second compound 3.16 µM, first compound 0.1 µM
[22] = second compound 10 µM, first compound 0.00316 µM
[23] = second compound 10 µM, first compound 0.01 µM
[24] = second compound 10 µM, first compound 0.0316 µM
[25] = second compound 10 µM, first compound 0.1 µM
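Also: spheroids exposed to agents for seven days before readout.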

For `CC(C)CC(NC(=O)C(Cc1ccccc1)NC(=O)c1cnccn1)B(O)O` (stereo not drawn) + NC1CC1c1ccc(-c2cccc(O)c2)cc1, the IC50 [1] was 0.832 nM, the IC50 [2] was 0.904 nM and the IC50 [3] was 0.786 nM. The IC50 [4] was 0.979 nM, the IC50 [5] was 0.589 nM and the viability, T/C (second compound 0.1 µM, first compound 0.000316 µM) was 122%. It also gave a viability, T/C (second compound 0.1 µM, first compound 0.001 µM) of 35.4%, a viability, T/C [6] of 12.9% and a viability, T/C [7] of 4.58%. The viability, T/C [8] was 1.38%, the viability, T/C [9] was 2.17% and the viability, T/C (second compound 0.316 µM, first compound 0.000316 µM) was 110%. It also gave a viability, T/C (second compound 0.316 µM, first compound 0.001 µM) of 44.2%, a viability, T/C [10] of 11.4% and a viability, T/C [11] of 3.25%. The viability, T/C [12] was 1.54%, the viability, T/C [13] was 1.44% and the viability, T/C (second compound 1 µM, first compound 0.000316 µM) was 109%. The viability, T/C (second compound 1 µM, first compound 0.001 µM) was 34%, the viability, T/C [14] was 11.6% and the viability, T/C [15] was 3.96%. For the same compound, the viability, T/C [16] was 0.99%, the viability, T/C [17] was 4.31% and the viability, T/C (second compound 3.16 µM, first compound 0.000316 µM) was 103%. It also gave a viability, T/C (second compound 3.16 µM, first compound 0.001 µM) of 48.9%, a viability, T/C [18] of 16% and a viability, T/C [19] of 3.4%. The viability, T/C [20] was 1.41%, the viability, T/C [21] was 2.37% and the viability, T/C (second compound 10 µM, first compound 0.000316 µM) was 74.4%. The viability, T/C (second compound 10 µM, first compound 0.001 µM) was 29.1%, the viability, T/C [22] was 9.61% and the viability, T/C [23] was 3.68%. The viability, T/C [24] was 1.33% and the viability, T/C [25] was 2.12%.
For `NC1CC1c1ccc(-c2cccc(O)c2)cc1` (stereo not drawn), the IC50 (compound alone, run of 02/01/2022) was > 10000 nM.
With `CCc1c2c(nc3ccc(O)cc13)-c1cc3c(c(=O)n1C2)COC(=O)[C@]3(O)CC` + NC1CC1c1ccc(-c2cccc(O)c2)cc1 the IC50 [1] was < 0.949 nM, the IC50 [2] was < 0.949 nM and the IC50 [3] was < 0.949 nM. For the same compound, the IC50 [4] was < 0.949 nM, the IC50 [5] was < 0.949 nM and the viability, T/C (second compound 0.1 µM, first compound 0.000949 µM) was 27.2%. For the same compound, the viability, T/C (second compound 0.1 µM, first compound 0.003 µM) was 18%, the viability, T/C (second compound 0.1 µM, first compound 0.00949 µM) was 11.7% and the viability, T/C (second compound 0.1 µM, first compound 0.03 µM) was 5.92%. It also gave a viability, T/C (second compound 0.1 µM, first compound 0.0949 µM) of 6.24%, a viability, T/C (second compound 0.1 µM, first compound 0.3 µM) of 9.54% and a viability, T/C (second compound 0.316 µM, first compound 0.000949 µM) of 27.7%. For the same compound, the viability, T/C (second compound 0.316 µM, first compound 0.003 µM) was 21%, the viability, T/C (second compound 0.316 µM, first compound 0.00949 µM) was 11.2% and the viability, T/C (second compound 0.316 µM, first compound 0.03 µM) was 5.65%. For the same compound, the viability, T/C (second compound 0.316 µM, first compound 0.0949 µM) was 6.29%, the viability, T/C (second compound 0.316 µM, first compound 0.3 µM) was 9.28% and the viability, T/C (second compound 1 µM, first compound 0.000949 µM) was 25.6%. It also gave a viability, T/C (second compound 1 µM, first compound 0.003 µM) of 19.9%, a viability, T/C (second compound 1 µM, first compound 0.00949 µM) of 10.6% and a viability, T/C (second compound 1 µM, first compound 0.03 µM) of 5.85%. It also gave a viability, T/C (second compound 1 µM, first compound 0.0949 µM) of 6.63%, a viability, T/C (second compound 1 µM, first compound 0.3 µM) of 10.5% and a viability, T/C (second compound 3.16 µM, first compound 0.000949 µM) of 21.4%. It also gave a viability, T/C (second compound 3.16 µM, first compound 0.003 µM) of 17.2%, a viability, T/C (second compound 3.16 µM, first compound 0.00949 µM) of 10.3% and a viability, T/C (second compound 3.16 µM, first compound 0.03 µM) of 5.97%. For the same compound, the viability, T/C (second compound 3.16 µM, first compound 0.0949 µM) was 7.51%, the viability, T/C (second compound 3.16 µM, first compound 0.3 µM) was 9.23% and the viability, T/C (second compound 10 µM, first compound 0.000949 µM) was 23.3%. The viability, T/C (second compound 10 µM, first compound 0.003 µM) was 13.5%, the viability, T/C (second compound 10 µM, first compound 0.00949 µM) was 12.3% and the viability, T/C (second compound 10 µM, first compound 0.03 µM) was 6.19%. The viability, T/C (second compound 10 µM, first compound 0.0949 µM) was 4.83% and the viability, T/C (second compound 10 µM, first compound 0.3 µM) was 9.59%.
For `Nc1ncn(C2CC(O)C(CO)S2)c(=O)n1` (stereo not drawn), the viability, T/C (compound 0.000949 µM) was 96% and 102%, the viability, T/C (compound 0.003 µM) was 96.2% and 104% and the viability, T/C (compound 0.00949 µM) was 103% and 100%. For the same compound, the viability, T/C (compound 0.03 µM) was 76.5% and 87.5%, the viability, T/C (compound 0.0949 µM) was 76.6% and 87.2% and the viability, T/C (compound 0.3 µM) was 62.8% and 79.2%. The IC50 (curve of compound) was > 300 nM.
Work on `O=C(C=Cn1cnc(-c2cc(C(F)(F)F)cc(C(F)(F)F)c2)n1)NNc1cnccn1` + NC1CCC(NC2CC2c2ccccc2)CC1 yielded an IC50 [1] of 4.91 nM, an IC50 [2] of 8.22 nM and an IC50 [3] of 12.7 nM. The IC50 [4] was 11.1 nM, the IC50 [5] was 9.83 nM and the viability, T/C [6] was 53.1%. The viability, T/C [7] was 46.5%, the viability, T/C [8] was 35.8% and the viability, T/C [9] was 30.6%. It also gave a viability, T/C (second compound 0.1 µM, first compound 0.316 µM) of 31.8%, a viability, T/C (second compound 0.1 µM, first compound 1 µM) of 19.6% and a viability, T/C [10] of 57.2%. For the same compound, the viability, T/C [11] was 48.7%, the viability, T/C [12] was 40.9% and the viability, T/C [13] was 34.6%. For the same compound, the viability, T/C (second compound 0.316 µM, first compound 0.316 µM) was 29.4%, the viability, T/C (second compound 0.316 µM, first compound 1 µM) was 26.2% and the viability, T/C [14] was 53.6%. It also gave a viability, T/C [15] of 50.1%, a viability, T/C [16] of 48% and a viability, T/C [17] of 34.6%. For the same compound, the viability, T/C (second compound 1 µM, first compound 0.316 µM) was 30.6%, the viability, T/C (second compound 1 µM, first compound 1 µM) was 22.4% and the viability, T/C [18] was 64%. The viability, T/C [19] was 46.3%, the viability, T/C [20] was 42.7% and the viability, T/C [21] was 35.4%. The viability, T/C (second compound 3.16 µM, first compound 0.316 µM) was 29.1%, the viability, T/C (second compound 3.16 µM, first compound 1 µM) was 21.9% and the viability, T/C [22] was 60.4%. The viability, T/C [23] was 45.5%, the viability, T/C [24] was 41% and the viability, T/C [25] was 40.6%. It also gave a viability, T/C (second compound 10 µM, first compound 0.316 µM) of 32.5% and a viability, T/C (second compound 10 µM, first compound 1 µM) of 24.2%.
